Read-outs that look alike come from different tables or passages of the source.
Key:
Format in all cases: in vivo
Pyricularia oryzae = conditions: rice, protective, evaluation 4 days after inoculation
Pyricularia = conditions: rice
[1] = system: Erysiphe graminis f.sp. hordei; test: Erysiphe test (barley)/protective; conditions: protective, application rate 50 g/ha, evaluation 7 days after inoculation
Description: Erysiphe test (barley)/protective
Solvent: 50 parts by weight of dimethylformamide
Emulsifier: 1 part by weight of alkylaryl polyglycol ether
To produce a suitable preparation of active compound, 1 part by weight of active compound or a combination of active compound is mixed with the stated amounts of solvent and emulsifier, and the concentrate is diluted with water to the desired concentration, or a commercial formulation of active compound or active compound combination is diluted with water to the desired concentration.
To test for protective activity, young plants are sprayed with the preparation of active compound at the stated application rate.
1 day after the treatment, the plants are dusted with spores of Erysiphe graminis f.sp. hordei.
The plants are placed in a greenhouse at a temperature of about 20° C. and a relative atmospheric humidity of about 80% to promote the development of mildew pustules.
Evaluation is carried out 7 days after the inoculation. 0% means an efficacy which corresponds to that of the control, whereas an efficacy of 100% means that no infection is observed.

CCC1(C(=O)NC(C)c2ccc(Cl)cc2)C(C)C1(Cl)Cl (stereo not shown) [(II), N-[1-(4-chlorophenyl)ethyl]-2,2-dichloro-1-ethyl-3-methylcyclopropane-carboxamide]
Efficacy in % (Pyricularia oryzae; application rate 50 g/ha): 29%
Efficacy in % (Pyricularia; 100 g/10 acres, a: inoculation one week after treatment): 0%

N#Cc1ccccc1NC(=O)c1snc(Cl)c1Cl [(I), 2′-cyano-3,4-dichloroisothiazole-5-carboxanilide]
Efficacy in % (Pyricularia; 10 g/10 acres, b: inoculation two weeks after treatment): 12.6%
Efficacy in % (Pyricularia; 20 g/10 acres, b: inoculation two weeks after treatment): 75%

O=C(Nc1ccccc1)N(Cc1ccc(Cl)cc1)C1CCCC1 [(V)]
Efficacy in % [1]: 0%

OC(Cc1ccccc1Cl)(Cn1nc[nH]c1=S)C1(Cl)CC1 (stereo not shown) [(IV-c), Prothioconazole]
Efficacy in % (Pyricularia oryzae; application rate 100 g/ha): 29%

CC(C)(C)C(O)(CCc1ccc(Cl)cc1)Cn1cncn1 (stereo not shown) [(IV-b)]
Efficacy in % (Pyricularia oryzae; application rate 100 g/ha): 0%

CC(NC(=O)C(C#N)C(C)(C)C)c1ccc(Cl)cc1Cl (stereo not shown) [(IX), diclocymet]
Efficacy in % (Pyricularia; 10 g/10 acres, a: inoculation one week after treatment): 37.5%
Efficacy in % (Pyricularia; 20 g/10 acres, a: inoculation one week after treatment): 83.2%
Efficacy in % (Pyricularia; 100 g/10 acres, b: inoculation two weeks after treatment): 27.8%
